Read-outs that look alike come from different tables or passages of the source.
Key:
[1] = system: HCT-116^+/+; experiment: MTT viability assay, HCT-116+/+; assay type: cell-based, human; conditions: functional p53, mean of six replicates of one experiment, read-out: IC50 Cancer Cell Lines (C) HCT-116+/+
Description: (§1) HCT-116 (CCL-247), LoVo (CCL-229), DLD-1 (CCL-221), HT-29 (HTB-38) and CoN (CCD-841) human CRC cells were obtained from the ATCC (Manassas, VA, USA). HCT-116 cells were cultured in Dulbecco’s Modified Eagle’s Medium (DMEM; Corning Cellgro, Corning, NY, USA) for the invasion assays or RPMI-1640 medium (Lonza, Westburg, The Netherlands) for all other assays. The LoVo, DLD-1, and HT-29 cell lines were grown in RPMI-1640 for all experiments. Media were supplemented with 10% fetal bovine serum (FBS; Gibco, Waltham, MA, USA or Greiner Bio-One, Vilvoorde, Belgium), 100 U/mL penicillin, and 100 µg/mL streptomycin (Gibco, Waltham, MA). Cells were grown at 37 °C and 5% CO2 in a humidified atmosphere. The CoN cells were cultured in Eagle’s Minimum Essential Medium (Lonza, Westburg, The Netherlands) supplemented with 10% FBS (South America origin, Greiner Bio-One, Vilvoorde, Belgium). HCT-116 p53^-/- cells were obtained from Denis L.J. LaFontaine, Université Libre de Bruxelles, Brussels, Belgium.
(§2) Effects of compounds on viability were assessed by means of 3-(4,5-dimethylthiazol-2-yl)-2,5-diphenyltetrazolium bromide (MTT; Sigma-Aldrich, Diegem, Belgium) colorimetric assay as previously reported. Briefly, cells were seeded in flat-bottom 96-well plates at the appropriate cell density 24 h prior to the exposure or not to the compound of interest. Each compound was first solubilized in dimethylsulfoxide (DMSO) at 10^−2 M concentration and further diluted in a serial manner in the culture medium. Nine concentrations ranging from 10 nM to 100 µM were tested in sextuplicate within the assay. Evaluation of the cell viability was conducted after 72 h of exposure to the compound by means of MTT assay.

[2] = system: HCT-116^-/-; experiment: MTT viability assay, HCT-116-/- (p53-null); assay type: cell-based, human; conditions: mean of six replicates of one experiment, read-out: IC50 Cancer Cell Lines (C) HCT-116-/-
Description: as §1, §2

[3] = system: LoVo; experiment: MTT viability assay, LoVo; assay type: cell-based, human; conditions: 72 h of exposure, TP53 wild type, mean of six replicates of one experiment, read-out: IC50 Cancer Cell Lines (C) LoVo
Description: as §1, §2

[4] = system: HT-29 p53-deficient and HCT-116 p53 wild-type models; design: method as in PMID 21220492; conditions: cited from earlier work
[5] = system: subpanel of CRC cell lines; conditions: NCI DTD 60 cell line screen; cited from earlier work
[6] = system: CoN; experiment: MTT viability assay, CoN normal colon epithelial cell line; assay type: cell-based, human; conditions: 72 h of exposure, mean of six replicates of one experiment, read-out: IC50 Normal Cell Line (N) CoN
Description: as §1, §2

[7] = system: Cancer Cell Lines (LoVo, HCT-116^+/+, HCT-116^-/-, HT-29, DLD-1); experiment: MTT viability assay, mean over the five colon cancer cell lines and ratio to CoN; assay type: cell-based, human; conditions: for Ratio N/C: IC50 CoN / mean IC50 cancer cells
Description: as §1, §2

[8] = system: DLD-1; experiment: MTT viability assay, DLD-1; assay type: cell-based, human; conditions: TP53 mutant, mean of six replicates of one experiment, read-out: IC50 Cancer Cell Lines (C) DLD-1
Description: as §1, §2

[9] = system: HT-29; experiment: MTT viability assay, HT-29; assay type: cell-based, human; conditions: TP53 mutant, mean of six replicates of one experiment, read-out: IC50 Cancer Cell Lines (C) HT-29
Description: as §1, §2

[10] = system: MMP-1, -2, -7, -9, -13; experiment: Luminex assay of MMP secretion in HCT-116 and LoVo cell supernatants; assay type: cell-based, human; conditions: 24 h, both cell lines (HCT-116, LoVo)
Text: (§3) We ordered a customized Luminex® assay to quantify 15 targets at once from Biotechne (reference LXSAHM-15; R&D Systems, Abingdon, U.K.). The 15 targets were chosen on the basis of the literature as follows: the relevant metalloproteinases MMP-1, -2, -7, -9, -13 [49] and the cytokines associated with dismal prognosis or shorter disease-free survival period: C-C motif chemokine ligand (CCL) -4, CCL-22, Flt-3 ligand, IL-1β, IL-2, IL-6, IL-8, interferon gamma (IFNγ), vascular endothelial growth factor (VEGF), and pentraxin-3 [50]. Samples were prepared as follows: HCT-116 or LoVo cells were seeded in 6-well plates and allowed to adhere and grow until they reached 70% confluency. The culture medium was replaced by 1.5 mL of culture medium containing only 0.5% of FBS with or without the compounds to be tested (NAR at 80 nM, LYC at 6 µM, and HAE at 6 µM). After 24 h of treatment, supernatants were collected, aliquoted, and kept frozen at −80 °C. Three independent series of samples were prepared. […] We thus decided to concentrate several aliquots of our supernatant samples by centrifugation of 500 µL of supernatant with Amicon Ultra 0.5 mL filters characterized by a 3 kDa cut-off (UFC500324; Millipore, Merck, Hoeilaart, Belgium) leading to a final volume of 150 µL (3.3 times concentrated). The Luminex® assay was conducted according to manufacturer’s recommendations. Data were collected on a Bioplex-200 (Bio-Rad, Temse, Belgium).

[11] = system: IL-8; experiment: Luminex assay of IL-8 in HCT-116 and LoVo cell supernatants; assay type: cell-based, human; conditions: 24 h
Text: as §3, with “Data were collected on a Bioplex-200 (Bio-Rad, Temse, Belgium).” left out

[12] = system: HCT-116 cells; experiment: Invasion assay, Matrigel-coated Boyden chambers, HCT-116; assay type: cell-based, human; conditions: for cell invasion, % of vehicle control: 24 h, corrected for adherent cells
Description: Prior to seeding HCT-116 cells in the invasion chambers, the medium was removed and cells were washed twice with phosphate buffered saline and incubated in DMEM lacking FBS for 48 h before seeding at a density of 1 × 10^5 cells/well into the upper portion of Matrigel-coated invasion chambers (Corning Biocoat, Corning, NY, USA), as described previously by our group in [47, 48]. The upper portion of each chamber contained cells suspended in serum-free DMEM containing DMSO vehicle alone or increasing concentrations of the Amaryllidaceae alkaloids NAR, LYC, and HAE. […] The lower portion of each chamber contained DMEM supplemented with 10% FBS. The FBS served as a chemoattractant. A polyethylene terephthalate (PET) membrane, containing 8 μm pores and coated with Matrigel basement membrane matrix, separated the upper and lower portions of the invasion chamber. After 24 h, chambers were removed and the cells that had not invaded were removed from within the chamber using a cotton swab. The cells that had invaded through and adhered to the bottom of the PET membrane separating the chambers were fixed with methanol and stained with 0.5% crystal violet (Sigma-Aldrich, St. Louis, MO, USA). Five random images were taken of the bottom of each membrane using a Cytation 5 Cell Imaging Multi-Mode Reader (Winooski, VT, USA). The cells in each image were counted using Image J (NIH, Bethesda, MD, USA).
To correct for the inhibitory effects of the Amaryllidaceae alkaloids on cell proliferation, cells from the same biological repeat were seeded in parallel in 24-well tissue culture plates at a density of 1 × 10^5 cells/well in DMEM containing 5% FBS (the average of the FBS concentrations in the upper and lower chambers) and supplemented with vehicle or increasing concentrations of the alkaloids. These wells were not coated with Matrigel. The medium was removed, and the adherent cells were trypsinized and counted 24 h after treatment using a hemocytometer. To compare cell invasion across treatments, cell invasion was corrected for adherent cell proliferation and expressed as % vehicle control.

[13] = system: LoVo cells; experiment: Adhesion assay (crystal violet), LoVo; assay type: cell-based, human; conditions: 0.08 µM, 15 h, 0.5% FBS, one experiment
Description: (§4) To evaluate the effects of the compounds on cell adhesion, 75000 HCT-116 or LoVo cells per well were seeded in 96-well flat-bottom plates in the presence or absence of each compound tested at three concentrations. In the first set of experiments, cells were allowed to adhere for 1, 5, 8, and 24 h and cultured with 10% FBS. Three independent experiments were performed each in sextuplicate to examine the time course of adhesion when grown with 10% FBS and increasing concentrations of each compound. In the second set of experiments cells were allowed to adhere for 15 h in a medium containing only 0.5% FBS to limit the contribution of proliferation to the results.
(§5) At the end of the incubation period, the plate was rinsed with phosphate buffered saline (PBS), fixed with 17.5% of formaldehyde at 4 °C for 15 min, and washed with deionized water twice before staining with 0.1% crystal violet (Sigma-Aldrich, Diegem, Belgium) in a 50:50 methanol/water mixture for 15 min. After extensive washes with water to remove any free crystal violet, the dye within the cells was extracted and solubilized in 100 µL of a 33% acetic acid solution and absorbance was measured at 570 nm (680XR, Bio-Rad Laboratories, Berkeley, CA, USA; reference wavelength 610 nm). The mean absorbance of the untreated control well was set at 100% for comparison. […]

[14] = system: HCT-116 cells; experiment: Adhesion assay (crystal violet), HCT-116; assay type: cell-based, human; conditions: 0.08 µM, 15 h, 0.5% FBS, one experiment
Description: as §4, §5

[15] = system: VEGF; experiment: Luminex assay of VEGF in HCT-116 and LoVo cell supernatants; assay type: cell-based, human; conditions: 24 h, both cell lines
Text: as §3, with “Data were collected on a Bioplex-200 (Bio-Rad, Temse, Belgium).” left out

[16] = system: LoVo cells; experiment: Invasion assay, Matrigel-coated Boyden chambers, LoVo; assay type: cell-based, human; conditions: 6 µM, 24 h, corrected for adherent cells
[17] = Homo sapiens, HCT-116, 72 h of exposure
[18] = Homo sapiens, mean over five cancer cell lines, MTT, 72 h, read-out: Mean IC50 Cancer Cells
[19] = Homo sapiens, DLD-1, 72 h of exposure
[20] = Homo sapiens, HT-29, 72 h of exposure
[21] = mean over five cancer cell lines, MTT, 72 h, read-out: Mean IC50 Cancer Cells
[22] = Homo sapiens, after 72 h of exposure, regardless of TP53 status, read-out: IC50s against all cancer cell lines

Structure (SMILES)	IC50 [1, 17] [nM]	IC50 [2, 17] [nM]	IC50 ([3]; Homo sapiens, LoVo) [nM]	GI50 [5] [nM]	IC50 ([6]; Homo sapiens, Epithelial cell) [nM]	IC50 [7, 18] [nM]	Ratio N/C [7]	IC50 [8, 19] [nM]	IC50 [9, 20] [nM]	IC50 ([1]; 72 h of exposure) [nM]	IC50 ([2]; 72 h of exposure) [nM]	IC50 [3] [nM]	IC50 [6] [nM]	IC50 [7, 21] [nM]	IC50 ([8]; 72 h of exposure) [nM]	IC50 ([9]; 72 h of exposure) [nM]	IC50 [7, 22] [nM]	secretion of MMP-1, -2, and -7 ([10]; 6 µM)	other results
O=C1N[C@H]2[C@H](O)[C@H](O)[C@@H](O)[C@H](O)[C@@H]2c2cc3c(c(O)c21)OCO3 [PANC, pancratistatin]	170	160	590	263	2400	300	8	280	300										IC50 [4]: 100 nM
N.N.[Cl][Pt][Cl] [Cisplatin, cisplatin, reference compound]							5			4500	17500	8400	67000	13500	14800	22100			times less toxic toward non-cancerous cells ([7]; mean IC50s of cancer cell lines vs CoN cell line): 5 times
CO[C@@H]1C=C[C@@]23c4cc5c(cc4CN(C[C@@H]2O)[C@H]3C1)OCO5 [HAE, haemanthamine]	1900	2200	4600	15800	85000	2700	31	2400	2500								~3000	markedly decrease	
O=C1N[C@@H]2C(=C[C@H](O)[C@@H](O)[C@H]2O)c2cc3c(c(O)c21)OCO3 [NAR, narciclasine]				45.7			32			23	29	52	1100	33	30	32			IL-8 levels ([11]; HCT-116 cells, NAR 80 nM, in comparison to LYC): opposite effects; cell invasion, % of vehicle control ([12]; 0.04 µM): 41.1 ± 4.3%; cell invasion, % of vehicle control ([12]; 0.08 µM): 13.6 ± 4.8%; times more potent than PANC ([7]; MTT IC50 comparison NAR vs PANC): 10 times; maximal inhibition of cell adhesion [13]: 18%; inhibition of cell adhesion [14]: 39%; VEGF levels, times decreased ([15]; 0.08 µM): up to 5 times; secretion of MMP-1, -2, and -7 ([10]; 0.08 µM): markedly decrease
O[C@H]1[C@H]2c3cc4c(cc3CN3CCC(=C[C@@H]1O)[C@H]23)OCO4 [LYC, lycorine]	1300	2600	5500	1990	79000	3200	24	2900	3900								~3000	markedly decrease	IL-8 secretion ([11]; LYC 6 µM, both cellular models): reduced; invasion of HCT-116 cells ([12]; 1.5 µM, not dose-dependent): reduced; residual invasion rate [16]: 37.4 ± 7.8%; VEGF levels, times decreased ([15]; 6 µM): ≤ 10 times

Source: PMC9496155, “Amaryllidaceae Alkaloids Decrease the Proliferation, Invasion, and Secretion of Clinically Relevant Cytokines by Cultured Human Colon Cancer Cells” (Biomolecules, 2022)
